Data set [1] addresses SOS1 (Homo sapiens (Human), UniProt Q07889). Put plainly: Ras-SOS interaction assay (HTRF). The format is biochemical.
The test system of data set [2] is MIA PaCa-2 cells (K-Ras G12C). Kind of data set: Ras-SOS cellular growth inhibition assay (CellTiter-Glo, 3D). Format: cell-based. In short, it runs like this: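 Growth read by CellTiter-Glo luminescence about 5 days after dosing with 3-fold dilutions (9 points), added one day post-seeding. Cells: MIA PaCa-2, 3D culture on ultra-low-attachment surface, medium DMEM/Ham's F12 plus 10% FCS and 2.5% horse serum; IC50 by four-parameter fit.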

For data set [3], the system named is NCI-H1975 cells (EGFR T790M L858R). Kind of data set: EGFR-SOS cellular inhibition assay (CellTiter-Glo, 3D). The format is cell-based.
Data set [4] can be described thus: Metabolic (microsomal) stability assay. The format is in vitro ADME. Particulars: mouse liver microsomes, T1/2; read-out: DMPK-invitro-metabolic Stability (Mouse T1/2). The text has this:
Example 12: Metabolic (Microsomal) Stability Assay

The nature of data set [5]: In vitro plasma protein binding (PPB). Format: in vitro ADME. As to conditions: percentage of free/unbound compound.
Where [6] appears, read: K-RasG13D utilized, read-out: IC50 inhibition of SOS.
Setting [7] is: K-RasG13D, read-out: IC50 value against SOS1.
[8] abbreviates: Homo sapiens, MIA PaCa-2, 120 h, MIA PaCa-2, 3D proliferation, about 5 days, read-out: Bio-Cell-Prolif-3D (MiaPaca2 IC50).
[9] abbreviates: Homo sapiens, MIA PaCa-2, MIA PaCa-2, read-out: IC50 in inhibiting MIA PaCa-2 cell growth.
Setting [10] is: Homo sapiens, 120 h, NCI-H1975, 3D proliferation, about 5 days, read-out: Bio-Cell-Prolif-3D (H1975 IC50).
Where [11] appears, read: Homo sapiens, NCI-H1975, EGFR T790M L858R, read-out: IC50 in inhibiting growth of NCI-H1975 cell line.

Like-named read-outs stand apart in the source and are kept apart here. Some results are limits rather than exact numbers.

Chain of SOS1 (Q07889 564-1049): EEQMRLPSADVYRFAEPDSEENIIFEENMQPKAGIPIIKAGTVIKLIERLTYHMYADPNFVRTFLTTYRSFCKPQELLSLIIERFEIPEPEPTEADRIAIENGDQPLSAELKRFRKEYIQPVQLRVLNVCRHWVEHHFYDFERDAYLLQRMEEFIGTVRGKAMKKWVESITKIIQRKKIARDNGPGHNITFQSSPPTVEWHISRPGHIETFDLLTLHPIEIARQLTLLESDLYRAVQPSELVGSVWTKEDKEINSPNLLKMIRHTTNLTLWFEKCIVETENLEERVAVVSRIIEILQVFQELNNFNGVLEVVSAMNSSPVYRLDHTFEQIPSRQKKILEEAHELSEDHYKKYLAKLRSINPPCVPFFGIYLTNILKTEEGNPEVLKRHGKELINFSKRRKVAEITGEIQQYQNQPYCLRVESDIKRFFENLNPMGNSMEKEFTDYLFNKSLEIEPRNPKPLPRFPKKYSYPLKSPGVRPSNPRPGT

For `C[C@@H](Nc1ncnc2nc(Cl)c(C3(C#N)CC3)cc12)c1cccc(C(F)(F)C(C)(C)O)c1` [Compound 363, (R)-1-(7-chloro-4-((1-(3-(1,1-difluoro-2-hydroxy-2-methylpropyl)phenyl)ethyl)amino)pyrido [2,3-d]pyrimidin-6-yl)cyclopropane-1-carbonitrile], the IC50 is less than 100 nM in data set [1] (setting [6]); less than 50 nM in data set [1] (setting [7]); not above 1000 nM in data set [2] (setting [8]); less than 500 nM in data set [2] (setting [9]); not above 1000 nM in data set [3] (setting [10]); less than 500 nM in data set [3] (setting [11]). Further, the half-life in data set [4] is more than 3.33 h.

Take `Cc1nc(N[C@H](C)c2cccc(C(F)(F)CO)c2F)c2cc(C3(C#N)CC3)c(Cl)nc2n1` [Compound 195, (R)-1-(7-chloro-4-((1-(3-(1,1-difluoro-2-hydroxyethyl)-2-fluorophenyl)ethyl)amino)-2-methylpyrido[2,3-d]pyrimidin-6-yl)cyclopropane-1-carbonitrile]: the IC50 in data set [1] (setting [6]) was less than 100 nM; in data set [1] (setting [7]), less than 50 nM; in data set [2] (setting [8]), not above 1000 nM; in data set [2] (setting [9]), less than 500 nM; in data set [3] (setting [10]), not above 1000 nM. The half-life in data set [4] came to 0.352 h.

Regarding `C[C@H](O)C(F)(F)c1cccc([C@@H](C)Nc2ncnc3nc(Cl)c(C4(C#N)CC4)cc23)c1F` [Compound 417, 1-(7-chloro-4-(((R)-1-(3-((S)-1,1-difluoro-2-hydroxypropyl)-2-fluorophenyl)ethyl)amino)pyrido[2,3-d]pyrimidin-6-yl)cyclopropane-1-carbonitrile], the IC50 is less than 100 nM in data set [1] (setting [6]); less than 50 nM in data set [1] (setting [7]); not above 1000 nM in data set [2] (setting [8]); not above 1000 nM in data set [3] (setting [10]); less than 500 nM in data set [3] (setting [11]). The half-life in data set [4] is more than 3.33 h.

For the compound `Cc1nc(N[C@H](C)c2cccc(C(F)(F)[C@H](C)O)c2)c2cc(C3(C#N)CC3)c(Cl)nc2n1` [Compound 220, 1-(7-chloro-4-(((R)-1-(3-((S)-1,1-difluoro-2-hydroxypropyl)phenyl)ethyl)amino)-2-methylpyrido[2,3-d]pyrimidin-6-yl)cyclopropane-1-carbonitrile], the IC50 is less than 100 nM in data set [1] (setting [6]); less than 50 nM in data set [1] (setting [7]); not above 1000 nM in data set [2] (setting [8]); less than 500 nM in data set [2] (setting [9]); not above 1000 nM in data set [3] (setting [10]); less than 500 nM in data set [3] (setting [11]). For the same compound, the half-life in data set [4] stood at 1.67 h.

`COc1nc2ncnc(N[C@H](C)c3cccc(C(F)(F)C(C)(C)O)c3)c2cc1N1CCN(C(C)C)CC1` [Compound 202, (R)-1,1-difluoro-1-(3-(1-((6-(4-isopropylpiperazin-1-yl)-7-methoxypyrido [2,3-d]pyrimidin-4-yl)amino)ethyl)phenyl)-2-methylpropan-2-ol]: the IC50 in data set [1] (setting [6]) was less than 100 nM; in data set [1] (setting [7]), less than 50 nM; in data set [2] (setting [8]), not above 1000 nM; in data set [2] (setting [9]), less than 500 nM; in data set [3] (setting [10]), not above 1000 nM; in data set [3] (setting [11]) it was less than 500 nM. Moreover, the “DMPK-invitro-PPB (Mouse Unbound) [%]” value in data set [5] stood at 19.85%.

Take `COc1nc2nc(C)nc(N[C@H](C)c3cccc(C(F)(F)F)c3C)c2cc1N1CCN(C2CCOCC2)CC1` [Compound 378, (R)-7-methoxy-2-methyl-N-(1-(2-methyl-3-(trifluoromethyl)phenyl)ethyl)-6-(4-(tetrahydro-2H-pyran-4-yl)piperazin-1-yl)pyrido[2,3-d]pyrimidin-4-amine]: the half-inhibitory concentration (IC50) is less than 100 nM in data set [1] (setting [6]); less than 50 nM in data set [1] (setting [7]); not above 1000 nM in data set [2] (setting [8]); less than 500 nM in data set [2] (setting [9]); not above 1000 nM in data set [3] (setting [10]); less than 500 nM in data set [3] (setting [11]). For the same compound, the “DMPK-invitro-PPB (Mouse Unbound) [%]” value in data set [5] amounted to 0.14%.

Consider `COc1nc2ncnc(N[C@H](C)c3cccc(C(F)F)c3F)c2cc1N1CCN(C)CC1` [Compound 156, (R)-N-(1-(3-(difluoromethyl)-2-fluorophenyl)ethyl)-7-methoxy-6-(4-methylpiperazin-1-yl)pyrido[2,3-d] pyrimidin-4-amine], for which the IC50 in data set [1] (setting [6]) is less than 100 nM; in data set [1] (setting [7]) it was less than 50 nM; in data set [2] (setting [8]), not above 1000 nM; in data set [2] (setting [9]) it was less than 500 nM; in data set [3] (setting [10]), not above 1000 nM; in data set [3] (setting [11]), less than 500 nM. Further, the “DMPK-invitro-PPB (Mouse Unbound) [%]” value in data set [5] is 14.53%.

Take `CCN1CCC(c2cc3c(N[C@H](C)c4cccc(C(F)(F)F)c4C)ncnc3nc2OC)CC1` [Compound 353, (R)-6-(1-ethylpiperidin-4-yl)-7-methoxy-N-(1-(2-methyl-3-(trifluoromethyl)phenyl)ethyl)pyrido [2,3-d]pyrimidin-4-amine]: the IC50 in data set [1] (setting [6]) is less than 100 nM; in data set [1] (setting [7]), less than 50 nM; in data set [2] (setting [8]), not above 1000 nM; in data set [2] (setting [9]), less than 500 nM; in data set [3] (setting [10]), not above 1000 nM; in data set [3] (setting [11]), less than 500 nM. The “DMPK-invitro-PPB (Mouse Unbound) [%]” value in data set [5] amounted to 0.74%.

As for `COc1nc2ncnc(N[C@H](C)c3cccc(C(F)(F)F)c3F)c2cc1N1CCS(=O)(=O)CC1` [Compound 308, (R)-4-(4-((1-(2-fluoro-3-(trifluoromethyl)phenyl)ethyl)amino)-7-methoxypyrido[2,3-d]pyrimidin-6-yl)thiomorpholine 1,1-dioxide], the IC50 in data set [1] (setting [6]) was less than 100 nM; in data set [1] (setting [7]) it was less than 50 nM; in data set [2] (setting [8]), not above 1000 nM; in data set [2] (setting [9]), less than 500 nM; in data set [3] (setting [10]), not above 1000 nM; in data set [3] (setting [11]), less than 500 nM. Moreover, the “DMPK-invitro-PPB (Mouse Unbound) [%]” value in data set [5] came out at 2.91%.

Take `COc1nc2ncnc(N[C@H](C)c3cccc(C(F)F)c3F)c2cc1C1CCS(=O)(=O)CC1` [Compound 146, (R)-4-(4-((1-(3-(difluoromethyl)-2-fluorophenyl)ethyl)amino)-7-methoxypyrido[2,3-d]pyrimidin-6-yl)tetrahydro-2H-thiopyran 1,1-dioxide]: the half-inhibitory concentration (IC50) in data set [1] (setting [6]) is less than 100 nM; in data set [1] (setting [7]) it was less than 50 nM; in data set [2] (setting [9]) it was less than 500 nM; in data set [2] (MIA PaCa-2, 3D proliferation, about 5 days, read-out: Bio-Cell-Prolif-3D (MiaPaca2 IC50)), not above 1000 nM; in data set [3] (NCI-H1975, 3D proliferation, about 5 days, read-out: Bio-Cell-Prolif-3D (H1975 IC50)), not above 1000 nM; in data set [3] (NCI-H1975, EGFR T790M L858R, read-out: IC50 in inhibiting growth of NCI-H1975 cell line), less than 500 nM. In addition, the “DMPK-invitro-PPB (Mouse Unbound) [%]” value in data set [5] is 3.58%.

For the compound `COc1nc2ncnc(N[C@H](C)c3cccc(C(F)(F)F)c3F)c2cc1C1CCN(C(C)C)CC1` [Compound 162, (R)-N-(1-(2-fluoro-3-(trifluoromethyl)phenyl)ethyl)-6-(1-isopropylpiperidin-4-yl)-7-methoxypyrido[2,3-d] pyrimidin-4-amine], the IC50 in data set [1] (setting [6]) was less than 100 nM; in data set [1] (setting [7]), less than 50 nM; in data set [2] (setting [8]), not above 1000 nM; in data set [3] (setting [10]) it was not above 1000 nM; in data set [3] (setting [11]), less than 500 nM. Moreover, in data set [5], the “DMPK-invitro-PPB (Mouse Unbound) [%]” value worked out at 2.19%.

In the case of `COc1nc2ncnc(N[C@H](C)c3cccc(C(C)(F)F)c3F)c2cc1C1CCS(=O)(=O)CC1` [Compound 267, (R)-4-(4-((1-(3-(1,1-difluoroethyl)-2-fluorophenyl)ethyl)amino)-7-methoxypyrido[2,3-d]pyrimidin-6-yl)tetrahydro-2H-thiopyran 1,1-dioxide], the IC50 in data set [1] (setting [6]) was less than 100 nM; in data set [1] (setting [7]) it was less than 50 nM; in data set [2] (setting [8]) it was not above 1000 nM; in data set [2] (setting [9]), less than 500 nM; in data set [3] (setting [10]), not above 1000 nM; in data set [3] (setting [11]) it was less than 500 nM. The “DMPK-invitro-PPB (Mouse Unbound) [%]” value in data set [5] was 5.6%.

The record behind these values is patent US11648254B2 (Kumquat Biosciences Inc., priority 2021, dated 2023).
